According to US6465614B1, “High-affinity response-selective C-terminal analogs of C5a anaphylatoxin” (priority 1994, dated 2002):
Like-named read-outs stand apart in the source and are kept apart here. Square brackets hold non-standard residues; d marks the D form. Ends that are not written are not given here. Peptide text beside a SMILES is read from it.

T1: human neutrophils (PMN) (Homo sapiens, UniProt P21730)
T1 sequence (P21730 1-350): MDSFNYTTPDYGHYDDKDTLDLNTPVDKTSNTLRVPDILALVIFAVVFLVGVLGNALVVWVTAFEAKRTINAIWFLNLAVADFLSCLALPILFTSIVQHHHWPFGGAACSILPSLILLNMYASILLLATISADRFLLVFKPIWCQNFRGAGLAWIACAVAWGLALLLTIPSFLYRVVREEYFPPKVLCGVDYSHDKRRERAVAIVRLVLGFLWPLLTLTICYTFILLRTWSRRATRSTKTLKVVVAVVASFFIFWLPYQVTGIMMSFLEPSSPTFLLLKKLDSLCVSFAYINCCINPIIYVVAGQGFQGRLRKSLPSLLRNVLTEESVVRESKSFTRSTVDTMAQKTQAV

T2: human fetal artery (Homo sapiens, UniProt P21730)
T2 sequence (P21730 1-350): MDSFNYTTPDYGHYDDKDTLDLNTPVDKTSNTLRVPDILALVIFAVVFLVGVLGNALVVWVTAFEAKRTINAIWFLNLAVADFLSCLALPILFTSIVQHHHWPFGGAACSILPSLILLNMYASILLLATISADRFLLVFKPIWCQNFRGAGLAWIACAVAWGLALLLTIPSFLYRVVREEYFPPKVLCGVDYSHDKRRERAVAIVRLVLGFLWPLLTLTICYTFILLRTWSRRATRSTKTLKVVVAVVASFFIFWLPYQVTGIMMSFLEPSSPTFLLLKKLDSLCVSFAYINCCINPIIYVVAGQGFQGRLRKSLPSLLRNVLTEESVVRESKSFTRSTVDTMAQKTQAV


Assays:
guinea-pig platelets = assay: Guinea-pig platelet aggregation assay; format: cell-based; details: for Platelet Aggreg (threshold concentration producing visible platelet aggregation): guinea-pig platelets, threshold response
Procedure: This assay was performed on platelets obtained from the arterial blood of anesthetized male Hartley guinea pigs according to previously published methods (Ember et al., 1992, supra). Briefly, platelet-rich plasma was prepared and diluted to 3×10^8 platelets/ml in 0.39% sodium citrate solution. Peptide samples were diluted in a stepwise fashion in 1.5-fold dilutions and placed in 96-well microplates. A […] peptide sample, […] of platelet-rich plasma, and one 3 mm glass bead were placed in each well. The plates were shaken horizontally at 100 rpm for 5 min at 37° C. Platelet aggregation was evaluated visually in an inverted microscope at 40× magnification. The greatest dilution of peptide producing visible aggregation was scored as the threshold concentration for activity. Natural C5a and C3a were included as internal standards. At least three independent duplicate determinations were conducted for every peptide.

human neutrophils (PMN) [1] = biological target: T1, human neutrophils (PMN); format: cell-based
Procedure: Neutrophil polarization assays were conducted as described by Ember et al., 1992, supra. Human neutrophils (PMN) were prepared according to the procedure described by Dahinden et al. (1979), J. Immunol., 130: 857-862. The assay for measuring the effect of C5a analogs on PMN polarization was described by Haston & Shields (1985), J. Immunol. Methods, 81: 229-237. Briefly, PMN (1×10^6 cells/ml) were suspended in 10 mM 3- (N-morpholino) propane sulfonic acid (Sigma Chemical Co.) containing EBSS. […] After 10 minutes of incubation at room temperature, the cells were washed twice and stored until microscopic examination. Cells deviating from the typical spherical shape were visually scored as polarized. Results are expressed as percent of polarized cells per total cells counted (300 cells counted/sample).

human fetal artery = biological target: T2, human fetal artery; assay: Smooth muscle contraction of human fetal artery (spasmogenic assay); format: cell-based
Procedure: Tissue strips were suspended in 2 ml organ baths, containing physiological salt solution (Krebs-Ringers solution: 118 mM NaCl, 4.7 mM KCl, 2.5 mM CaCl2, 25 mM NaHCO3, 1.2 mM KH2PO4, 1.2 mM MgSO4, 10 mM Glucose) maintained at 37° C., pH 7.4 and continuously aerated with a […] mixture. Each tissue preparation was equilibrated for 1 hr prior to testing with peptides. All drugs were kept on ice during the procedure and isometric tensions were measured using strain-gauge transducers (Grass FT-03) with a computerized chart recording system (MacLab/8). After the contraction to each peptide reached a plateau, histamine (10 μM) was added to obtain the maximum tissue response. Because tachyphylaxis occurs rapidly to single doses of C5a or peptides, cumulative dose-response curves could not be obtained. Instead, the dose-response profile was compiled from multiple strips from each tissue. After exposing each strip to a single concentration of the peptide followed by supramaximal histamine, the response was expressed as a percentage of the maximal contraction to histamine. Full dose-response curves for C5a (human recombinant C5a; Sigma) or individual peptides were performed in each experiment for each tissue and the EC50 values (i.e., concentration of peptide producing 50t of the maximal response to each peptide) obtained by probit analysis. pD2 transforms [−log EC50 (M)] were calculated for each dose-response curve, and means ±SE obtained for each peptide.
Human umbilical cords were obtained from the Mater Misericordiae Hospital, South Brisbane, Queensland within minutes of delivery. The mid-section of the umbilical cord was cut from the placenta, placed in physiological salt solution and stored at 5° C. for up to 24 hrs. […] The fetal arteries were dissected out and cut into longitudinal strips. The intimal surface of the arteries was rubbed with a cotton bud to remove the endothelium. Strips approximately 2 cm×3 mm were suspended in organ baths under 20 mN of resting tension. Arterial strips were tested repeatedly with peptides following a 60 min drug-free period of rest between assays (Taylor et al. (1994), Inflammation, in press).

human neutrophils (PMN) [2] = biological target: T1, human neutrophils (PMN); format: cell-based; remark: listed apart in the source
Procedure: The release of glucuronidase from human neutrophils was determined as described by Schroder et al. (1987), J. Immunol., 139: 3474-3483. Briefly, human neutrophils were pretreated with cytochalasin B (5 μg/ml, 10 min, 37° C.). The cells (10^6) were incubated in the presence of stimulants for 60 minutes at 37° C. in a final volume of 200 μl and then centrifuged. The supernatant was collected and 50 μl were incubated with 50 μl of 0.01 M P-nitrophenyl-β-D-glucuronide (in 0.1 M sodium acetate at pH 4 for 18 h) as triplicate determinations in 96-well microtiter plates (Corning). The reaction was stopped by addition of 100 μl of 0.4 M gly buffer at pH 10. The reaction developed color that was read at 405 nm in a Titertec Multiscan (MCC/340) ELISA reader. The β-glucuronidase released was expressed as the percentage of total enzyme in the cell that could be released by addition of 0.2% Triton X-100 (Pierce).

serum carboxypeptidases = assay: Stability toward serum carboxypeptidases (incubation in normal human serum, HPLC); format: in vitro ADME; details: 37° C., 1 h
Procedure: FIG. 10. HPLC profiles of decapeptide analogs. FIG. 10A: HPLC of […] (peptide/Sequence I.D. No. 2); a=purified peptide; b=des-Arg peptide ([…]; Sequence I.D. No. 24); c=des-Arg peptide in saline, no incubation; d=des-Arg peptide in saline with incubation for 1 h at 37° C.; e=des-Arg peptide in normal human serum with incubation for 1 h at 37° C. FIG. 10B: HPLC of […]aR (Sequence I.D. No. 10); a=purified peptide; b=peptide in saline, no incubation; c=peptide in saline with incubation for 1 h at 37° C.; d=peptide in normal human serum with incubation for 1 h at 37° C. Solvent system 1: 70 mM triethylamine/phosphoric acid buffer, pH-2.3. Solvent system 2: 60% acetonitrile in the Solvent 1 buffer. Linear gradient of 30-50% solvent 2 at.1%/min, slope=1 ml/min, absorbance monitored at 214 nm.
Both peptides were incubated in normal human serum at 37° C. for 1 h and thereafter reanalyzed on HPLC.

| Molecule | Platelet Aggreg (threshold concentration producing visible platelet aggregation) (guinea-pig platelets) [µM] | EC50 (human neutrophils (PMN) [1]) [µM] | further results |
| --- | --- | --- | --- |
| YSFKDAPLGR-OH [peptide 15] | 7.4 | – | – |
| YSFKDMPAGR-OH [peptide 11] | 101 | 215 | – |
| YSFKGMLLGR-OH [peptide 20] | 10.5 | – | potency compared with peptide 2 in guinea-pig platelet assay (guinea-pig platelets; in words): about two times more potent; potency compared with peptide 2 in human fetal artery (human fetal artery; in words): about two times more potent |
| ISFKDMQLGR-OH [peptide 1] | 86.3 | – | – |
| CSCC[C@H](NC(=O)[C@H](CC(=O)O)NC(=O)[C@H](CCCCN)NC(=O)[C@H](Cc1ccccc1)NC(=O)[C@H](CO)NC(=O)[C@@H](N)Cc1ccc(O)cc1)C(=O)N[C@@H](CCC(N)=O)C(=O)N[C@@H](CC(C)C)C(=O)N[C@H](C)C(=O)N[C@@H](CCCNC(=N)N)C(=O)O [peptide 8] | 20 | 1.2 | EC50 (human neutrophils (PMN) [2]): 32 µM |
| YSFKDMQPGR-OH [peptide 4] | 500 | – | – |
| YSFKDMQIGR [peptide 9] | 150 | – | – |
| YSFKDMPPGR-OH [peptide 6] | 80 | 50 | EC50 (human neutrophils (PMN) [2]): 700 µM |
| CC(C)C[C@@H]1NC(=O)[C@@H]2CCCN2C(=O)[C@@H](NC(=O)[C@H](CC(=O)O)NC(=O)[C@H](CCCCN)NC(=O)[C@H](Cc2ccccc2)NC(=O)[C@H](CO)NC(=O)[C@@H](N)Cc2ccc(O)cc2)CSSC[C@@H](C(=O)N[C@@H](CCCNC(=N)N)C(=O)O)NC1=O [peptide 18] (HELM PEPTIDE1{Y.S.F.K.D.C.P.L.C.R}$PEPTIDE1,PEPTIDE1,6:R3-9:R3$$$V2.0) | >410 | – | – |
| CC(C)C[C@H](NC(=O)[C@@H]1CCCN1C(=O)[C@H](CS)NC(=O)[C@H](CC(=O)O)NC(=O)[C@H](CCCCN)NC(=O)[C@H](Cc1ccccc1)NC(=O)[C@H](CO)NC(=O)[C@@H](N)Cc1ccc(O)cc1)C(=O)N[C@@H](CS)C(=O)N[C@@H](CCCNC(=N)N)C(=O)O [peptide 17] (H-YSFKDCPLCR-OH; N-terminus assumed) | 4.1 | 224 | – |
| YSFKDCPLGR-OH [peptide 16] | 2.3 | 19.5 | – |
| YSFKGMPLGR-OH [peptide 23] | 6.3 | 2 | EC50 (human neutrophils (PMN) [2]): 49.6 µM |
| YSFKGLLLGR-OH [peptide 21] | 21 | – | – |
| YSFKPMQLaR (YSFKPMQL[dA]R) [peptide 24] | – | – | potency relative to natural C5a for elicitation of a spasmogenic response (Class 1) (human fetal artery; smooth muscle contraction assay, percent of natural/full C5a potency): 20-30% |
| YSFKDMQLGR [peptide 2] | – | – | cleavage of the C-terminal Arg (serum carboxypeptidases): significant cleavage |
| CSCC[C@H](NC(=O)CNC(=O)[C@H](CCCCN)NC(=O)[C@H](Cc1ccccc1)NC(=O)[C@H](CO)NC(=O)[C@@H](N)Cc1ccc(O)cc1)C(=O)N[C@@H](CC(C)C)C(=O)N[C@@H](CC(C)C)C(=O)NCC(=O)N[C@H](CCCNC(=N)N)C(=O)O [peptide 22] (HELM PEPTIDE1{Y.S.F.K.G.M.L.L.G.[dR]}$$$$V2.0; N-terminus and C-terminus assumed) | – | – | agonist character compared to natural C5a in spasmogenic assays (human fetal artery; in words): full agonist of diminished potency; antagonist activity against C5a (human fetal artery; tested at concentrations below those causing contraction or aggregation): devoid of any antagonistic activity |
| YSFKDMQLPR-OH [peptide 3] | 225 | 500 | – |
| CSCC[C@H](NC(=O)[C@H](CC(=O)O)NC(=O)[C@H](CCCCN)NC(=O)[C@H](Cc1ccccc1)NC(=O)[C@H](CO)NC(=O)[C@@H](N)Cc1ccc(O)cc1)C(=O)N[C@@H](CCC(N)=O)C(=O)N[C@@H](CC(C)C)C(=O)N[C@@H](C)C(=O)N[C@@H](CCCNC(=N)N)C(=O)O [peptide 7] | 34 | 48 | EC50 (human neutrophils (PMN) [2]): 1000 µM |
| YSFKDMPLGR-OH [peptide 5] | 6.3 | – | increase in potency in spasmogenic and aggregatory activities relative to peptide 2 (human fetal artery; across spasmogenic and platelet aggregation assays (Tables 2 and 3)): 4- to 10 fold; log potency ratio at the EC50 level compared to C5a (human fetal artery; fetal artery): 2.01±0.12; % of C5a potency (human fetal artery; fetal artery, from log potency ratio at EC50 level): 1% |
| C5a: C5a anaphylatoxin, 74-residue human glycoprotein; human recombinant C5a (Sigma) or natural C5a used as standard (protein, UniProt P01031 678-751, looked up, C5a anaphylatoxin, C5a anaphylatoxin, 74-residue human glycoprotein; human recombinant C5a (Sigma) or natural C5a used as standard) C5a anaphylatoxin: TLQKKIEEIAAKYKHSVVKKCCYDGACVNNDETCEQRAARISLGPRCIKAFTECCVVASQLRANISHKDMQLGR | 0.023 | – | EC50 (human fetal artery; human fetal artery contraction, mean EC50 from individual experiments): 0.018 µM; EC50 (human neutrophils (PMN) [1]; human neutrophils, read-out: PMN Polarization EC50): 0.0013 µM; EC50 (human neutrophils (PMN) [2]; human neutrophils, β-glucuronidase release, read-out: PMN Enzyme Release EC50): 0.0123 µM |
